In patent publication US20040115483A1, “Crystal modification of a cyclic depsipeptide having improved strength” (priority 2001, published 2004):

Assays:
Haemonchus Contortus = experiment: Egg reduction test (eggs per gram of faeces) in experimentally infected sheep; format: in vivo; settings: oral (gelatin capsule), 1 sheep, EPG
Procedure: Effectiveness of Forms I-IV of the Depsipeptide of the Formula (I) at Different Oral Dosages Against Haemonchus Contortus in Sheep
Sheep (Merino or Blackhead breed, 25-35 kg of body weight) were experimentally infected with 5000H contortus L3 larvae and treated with the formulated test substance at the end of the prepatency time of the parasite. The test compounds were administered orally (gelatin capsule). The anthelmintic effectiveness of the test substances was measured as a function of reduction of the number of eggs per gram of faeces. To this end, fresh faeces from the test animals were processed according to the McMaster method, modified according to Wetzel, and the number of eggs was determined. The number of eggs was determined at regular intervals before and after the treatment. The anthelmintic effectiveness was defined as follows: 3=>95%, 2=75-95%, 1=50-75% and 0=<50% reduction in eggs (cf. also G. von Samson-Himmelstjerna, A. Harder, T. Schnieder, J. Kalbe, N. Mencke (2000) In vivo activities of the new anthelmintic depsipeptide PF1022A. Parasitol. Res. 86:194-199).

Cooperia Oncophora = experiment: Slaughter test (reduction of number of worms in small intestine) in experimentally infected cattle; format: in vivo; settings: oral, 3 cattle, slaughter 10 days after treatment
Procedure: Effectiveness of Forms I and IV of the Depsipeptide of the Formula (I) at Different Oral Dosages Against Cooperia Oncophora in Cattle
Cattle (breed: Hostein Friesean, species: Bos taurus, calves or young cattle of up to about 200 kg) were experimentally infected with 15,000 C. oncophora L3 larvae. After successful infection (prepatency time about 18-21 days) the number of eggs per gram of faeces was determined 3 times within one week. The animals were then (at day 0=day of the treatment) treated orally (gelatin capsule) or subcutaneously with the formulated test substance. The anthelmintic effectiveness of the test substances was determined as a function of the reduction of the number of worms (in % of the untreated control) in the small intestine after the animals had been slaughtered (10 days after the treatment) (cf. also G. von Samson-Himmelstjerna, A. Harder, T. Schnieder, J. Kalbe, N. Mencke (2000) In vivo activities of the new anthelmintic depsipeptide PF1022A. Parasitol. Res. 86: 194-199.).
The effectiveness in the slaughter experiment is stated in % reduction in worms, compared to the untreated control.

[1] = Thermodynamic stability of the crystal forms; format: physicochemical; settings: comparison of forms I-IV
[2] = Bioavailability of the crystal forms; format: in vivo; settings: comparison of forms I-IV

SMILES: CC(C)C[C@H]1C(=O)O[C@H](Cc2ccc(N3CCOCC3)cc2)C(=O)N(C)[C@@H](CC(C)C)C(=O)O[C@H](C)C(=O)N(C)[C@@H](CC(C)C)C(=O)O[C@H](Cc2ccc(N3CCOCC3)cc2)C(=O)N(C)[C@@H](CC(C)C)C(=O)O[C@H](C)C(=O)N1C [Form III]
- Effectiveness (reduction of eggs per gram of faeces) (Haemonchus Contortus; dosage 0.1 mg/kg, listed as III): 1 (1 Sheep, EPG) (1 = effectiveness 50% to 75%)
- Effectiveness (reduction of eggs per gram of faeces) (Haemonchus Contortus; dosage 0.5 mg/kg, listed as III): 1 (1 Sheep, EPG) (1 = effectiveness 50% to 75%)

SMILES: CC(C)C[C@H]1C(=O)O[C@H](Cc2ccc(N3CCOCC3)cc2)C(=O)N(C)[C@@H](CC(C)C)C(=O)O[C@H](C)C(=O)N(C)[C@@H](CC(C)C)C(=O)O[C@H](Cc2ccc(N3CCOCC3)cc2)C(=O)N(C)[C@@H](CC(C)C)C(=O)O[C@H](C)C(=O)N1C [Form II]
- Effectiveness (reduction of eggs per gram of faeces) (Haemonchus Contortus; dosage 0.1 mg/kg, listed as II): 0 (1 Sheep, EPG) (0 = effectiveness ≦ 50 %)
- Effectiveness (reduction of eggs per gram of faeces) (Haemonchus Contortus; dosage 0.5 mg/kg, listed as II): 0 (1 Sheep, EPG) (0 = effectiveness ≦ 50 %)

SMILES: CC(C)C[C@H]1C(=O)O[C@H](Cc2ccc(N3CCOCC3)cc2)C(=O)N(C)[C@@H](CC(C)C)C(=O)O[C@H](C)C(=O)N(C)[C@@H](CC(C)C)C(=O)O[C@H](Cc2ccc(N3CCOCC3)cc2)C(=O)N(C)[C@@H](CC(C)C)C(=O)O[C@H](C)C(=O)N1C [Form IV]
- Effectiveness (% reduction in worms, compared to the untreated control) (Cooperia Oncophora; dosage 1.0 mg/kg, listed as IV): 43.09% (3 cattle, slaughter test)
- Effectiveness (% reduction in worms, compared to the untreated control) (Cooperia Oncophora; dosage 2.0 mg/kg): 99.15% (3 cattle, slaughter test)
- Effectiveness (reduction of eggs per gram of faeces) (Haemonchus Contortus; dosage 0.1 mg/kg, listed as IV): 0 (1 Sheep, EPG) (0 = effectiveness ≦ 50 %)
- Effectiveness (reduction of eggs per gram of faeces) (Haemonchus Contortus; dosage 0.5 mg/kg, listed as IV): 0 (1 Sheep, EPG) (0 = effectiveness ≦ 50 %)
- Effectiveness (reduction of eggs per gram of faeces) (Haemonchus Contortus; dosage 1.0 mg/kg): 3 (1 Sheep, EPG) (3 = effectiveness > 95%)
- Thermodynamic stability (rank among the four forms) ([1]; listed as form IV): thermodynamically fourth most stable form

SMILES: CC(C)C[C@H]1C(=O)O[C@H](Cc2ccc(N3CCOCC3)cc2)C(=O)N(C)[C@@H](CC(C)C)C(=O)O[C@H](C)C(=O)N(C)[C@@H](CC(C)C)C(=O)O[C@H](Cc2ccc(N3CCOCC3)cc2)C(=O)N(C)[C@@H](CC(C)C)C(=O)O[C@H](C)C(=O)N1C [Form I]
- Effectiveness (% reduction in worms, compared to the untreated control) (Cooperia Oncophora; dosage 1.0 mg/kg, listed as I): 93.81% (3 cattle, slaughter test)
- Bioavailability (rank among the forms) [2]: greatest bioavailability
- Effectiveness (reduction of eggs per gram of faeces) (Haemonchus Contortus; dosage 0.1 mg/kg, listed as I): 3 (1 Sheep, EPG) (3 = effectiveness > 95%)
- Effectiveness (reduction of eggs per gram of faeces) (Haemonchus Contortus; dosage 0.5 mg/kg, listed as I): 3 (1 Sheep, EPG) (3 = effectiveness > 95%)
- Thermodynamic stability (rank among the four forms) ([1]; listed as form I): thermodynamically most stable form
